Experiments:
[1] = biological target: adenosine A2a (human) membrane (Homo sapiens (Human), UniProt P29274); test: A2A adenosine receptor radioligand binding assay ([3H] CGS-21680); settings: radioligand [3H] CGS-21680 6 nM
Procedure: A second A2A adenosine receptor radioligand binding assay protocol was used. The protocol used adenosine A2a (human) membrane (PerkinElmer RBHA2AM400UA) at a concentration of 5 μg/well/100 μl and the radioligand [3H] CGS-21680 (Cat No. PerkinElmer-NET1021250UC) at a final concentration of 6 nM. Testing compounds were diluted with DMSO to make 8-point 4-fold serial dilution, starting at 0.2 mM. CGS-15943 was the reference compound. 1 μl of compounds/high control/low control was transferred to the assay plate according to a plate map, followed by 100 μl of membrane stocks and 100 μl of radioligand, in assay buffer (50 mM Tris-HCl, 10 mM MgCl2, 1 mM EDTA, pH 7.4). The plate was sealed and incubated at RT for 2 hours. Unifilter-96 GF/C filter plates (Perkin Elmer Cat #6005174) were soaked with 50 μl of 0.3% PEI per well for at least 0.5 hour at room temperature. When the binding assays were completed, the reaction mixtures were filtered through GF/C plates using Perkin Elmer Filtermate Harvester, and each plate washed 4 times with cold wash buffer (50 mM Tris-HCl, 154 mM NaCl, pH 7.4). The filter plates were dried for 1 hour at 50 degrees. After drying, the bottom of the filter plate wells was sealed, 50 μl of Perkin Elmer Microscint 20 cocktail was added, and the top of the filter plate was sealed. ^3H trapped on the filter was counted using Perkin Elmer MicroBeta2 Reader. The data were analyzed with GraphPad Prism 5 to obtain binding IC50 values. The “Inhibition [% Control]” was calculated using the equation: % Inh=(1-Background subtracted Assay value/Background subtracted HC value)*100, where HC is high control.

[2] = biological target: adenosine A1 (human) membrane (Homo sapiens (Human), UniProt P30542); test: A1 adenosine receptor radioligand binding assay ([3H] DPCPX); settings: 200 nM compound; radioligand [3H] DPCPX 1 nM
Procedure: A second A1 adenosine receptor radioligand binding assay protocol was used. The protocol used adenosine A1 (human) membrane (PerkinElmer ES-010-M400UA) at a concentration of 2.5 μg/well/100 μl and the radioligand [3H] DPCPX (Cat No. PerkinElmer-NET974250UC) at a final concentration of 1 nM. Testing compounds were tested at a final concentration of 200 nM. CGS-15943, the reference compound, was tested in an 8-point 4-fold serial dilution, starting at a top concentration of 1 μM. 1 μl of compounds/high control/low control was transferred to the assay plate according to a plate map, followed by 100 μl of membrane stocks and 100 μl of radioligand, in assay buffer (25 mM HEPES, 5 mM MgCl2, 1 mM CaCl2, 100 mM NaCl, pH 7.4). The plate was sealed and incubated at RT for 1 hour. Unifilter-96 GF/C filter plates (Perkin Elmer Cat #6005174) were soaked with 50 μl of 0.3% PEI per well for at least 0.5 hour at room temperature. When the binding assays were completed, the reaction mixtures were filtered through GF/C plates using Perkin Elmer Filtermate Harvester, and each plate washed 4 times with cold wash buffer (25 mM HEPES, 5 mM MgCl2, 1 mM CaCl2, 100 mM NaCl, pH 7.4). The filter plates were dried for 1 hour at 50 degrees. After drying, the bottom of the filter plate wells was sealed, 50 μl of Perkin Elmer Microscint 20 cocktail was added, and the top of the filter plate was sealed. ^3H trapped on the filter was counted using Perkin Elmer MicroBeta2 Reader. The data were analyzed with GraphPad Prism 5 to obtain binding IC50 values for the reference compound. The “Inhibition [% Control]” was calculated using the equation: % Inh=(1-Background subtracted Assay value/Background subtracted HC value)*100, where HC is high control.

[3] = biological target: HEK-293 cells expressing human recombinant adenosine A1 receptor (Homo sapiens (Human), UniProt P30542); test: cAMP assay (Assay 2), A1 receptor; type: cell-based
Procedure: (§1) The functional activity of compounds was tested using Assay 2, below, to detect the presence of cAMP. Assay 1 is an alternative assay for this purpose. Activation of G-protein coupled receptors (such as A2A) results in activation of adenylyl cyclase which converts ATP into cAMP which is used as a downstream signaling molecule. Therefore, molecules which act as GPCR (or specifically A2A receptor) antagonists cause a decrease in intracellular cAMP concentration.
(§2) Assay 2 (Table B2): This assay used HEK-293 cells expressing human recombinant adenosine A2A receptor (or, alternatively, A1 receptor) that were grown prior to the test in media without antibiotic. 100 nL of test articles at 100x of final concentration were transferred to assay plate by Echo. Cells were washed twice with 5 mL of PBS and 10 μL of cells were mixed with 5 mL PBS. After aspirating the PBS and adding 1.5 mL versine, cells were incubated at 37° C. for 2-5 min. After centrifugation, 4 mL of medium was added and adjusted cell density to 5,000 cells/well with Stimulation Buffer. 10 μL of cells were aliquoted to the assay plate, centrifuged at 1000 rpm for 1 minute, and incubated for 60 minutes at room temperature. 5 μL 4× Eu-cAMP tracer solution and 5 μL 4× Ulight™-anti-cAMP solution were added to assay plate, followed by centrifugation and 60-minute incubation at room temperature. Plates were read on EnVision.

[4] = biological target: HEK-293 cells expressing human recombinant adenosine A2A receptor (Homo sapiens (Human), UniProt P29274); test: cAMP assay (Assay 2), A2A receptor; type: cell-based
Procedure: as §1, §2

Sequence of HEK-293 cells expressing human recombinant adenosine A1 receptor (P30542 whole entry): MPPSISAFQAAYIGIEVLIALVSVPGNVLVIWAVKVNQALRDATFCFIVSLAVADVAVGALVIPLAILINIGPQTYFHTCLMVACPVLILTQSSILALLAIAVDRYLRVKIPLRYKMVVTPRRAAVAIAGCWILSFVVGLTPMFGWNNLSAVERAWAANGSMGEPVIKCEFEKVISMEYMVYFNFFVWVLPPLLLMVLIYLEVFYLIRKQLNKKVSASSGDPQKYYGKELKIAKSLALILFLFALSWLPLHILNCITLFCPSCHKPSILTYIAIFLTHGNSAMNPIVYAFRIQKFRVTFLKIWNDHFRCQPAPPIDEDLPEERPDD
Sequence of adenosine A1 (human) membrane (P30542 whole entry): as above
Sequence of adenosine A2a (human) membrane (P29274 whole entry): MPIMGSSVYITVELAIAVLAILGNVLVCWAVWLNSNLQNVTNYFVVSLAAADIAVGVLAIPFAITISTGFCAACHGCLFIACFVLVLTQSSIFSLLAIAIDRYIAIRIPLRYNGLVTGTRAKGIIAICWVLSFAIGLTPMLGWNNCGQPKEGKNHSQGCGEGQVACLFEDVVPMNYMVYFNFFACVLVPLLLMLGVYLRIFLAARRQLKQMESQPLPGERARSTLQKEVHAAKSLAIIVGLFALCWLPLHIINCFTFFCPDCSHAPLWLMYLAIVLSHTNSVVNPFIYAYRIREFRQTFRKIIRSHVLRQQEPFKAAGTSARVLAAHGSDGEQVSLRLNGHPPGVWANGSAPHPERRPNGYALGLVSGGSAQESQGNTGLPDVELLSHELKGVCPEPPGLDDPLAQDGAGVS
Sequence of HEK-293 cells expressing human recombinant adenosine A2A receptor (P29274 whole entry): as above

- IC50 [1]: 3.1 nM
- inhibition at 0.2 µM [2]: 79%
- IC50 [3]: 27 nM
- IC50 [4]: 39 nM
Compound: N#Cc1cccc(-c2nc(N)cnc2-c2cc(Cl)c3ncccc3c2)c1F [2-10, 3-(6-amino-3-(8-chloroquinolin-6-yl)pyrazin-2-yl)-2-fluorobenzonitrile]

— US11306071B2, “Heterocyclic compounds as adenosine antagonists” (Nuvation Bio Inc., priority 2019, dated 2022)
